Patent US6503534B1, “Pharmaceutical compositions for prolonged peptide release and preparation method” (Societe de Conseils de Recherches et d'Applications …, priority 1998, dated 2003)

Test: Measurement of the specific surface area (B.E.T method)
Assay type: physicochemical
Conditions: lanreotide acetate recovered after flash freezing and lyophilization
Description: For all the following examples, the specific surface area of the peptide salt was determined by the so-called B.E.T method (absorption of a nitrogen monolayer on the active substance), a method well known to a person skilled in the art.

CC(C)[C@@H]1NC(=O)[C@H](CCCCN)NC(=O)[C@@H](Cc2c[nH]c3ccccc23)NC(=O)[C@H](Cc2ccc(O)cc2)NC(=O)[C@@H](NC(=O)[C@H](N)Cc2ccc3ccccc3c2)CSSC[C@@H](C(=O)N[C@H](C(N)=O)[C@@H](C)O)NC1=O [Example 3, lanreotide acetate]
Specific surface area obtained: 36 m^2/g

CC(C)[C@@H]1NC(=O)[C@H](CCCCN)NC(=O)[C@@H](Cc2c[nH]c3ccccc23)NC(=O)[C@H](Cc2ccc(O)cc2)NC(=O)[C@@H](NC(=O)[C@H](N)Cc2ccc3ccccc3c2)CSSC[C@@H](C(=O)N[C@H](C(N)=O)[C@@H](C)O)NC1=O [Example 4, lanreotide acetate]
Specific surface area obtained: 43 m^2/g
